Laboratory results: patent US12630515B2, “Small molecule prostagladin transport inhibitors” (ALBERT EINSTEIN COLLEGE OF MEDICINE, priority 2019, dated 2026)

Biological target: T1, rat PGT (Rattus norvegicus, UniProt Q00910)
T1 construct: expressed in transfected cells
Assay: PGT inhibition: [3H]PGE2 uptake in MDCK cells stably transfected with rat PGT
Type: cell-based
Conditions: room temperature
Description: MDCK cells stably transfected with rat PGT ae seeded at 15-20% confluence on 96-well deepwell plates. The day on which the cells are seeded is considered day 1. PGE2 uptake experiments are conducted on day 4. All of the PGE2 uptake experiments are conducted at room temperature. On day 4, cells are washed twice with Waymouth buffer (135 mM NaCl, 13 mM H-Hepes, 13 mM Na-Hepes, 2.5 mM CaCl2, 1.2 mM MgCl2, 0.8 mM MgSO4, 5 mM KCl, and 28 mM D-glucose). Then 200 μL of Waymouth buffer containing [^3H]PGE2 (available from Perkin Elmer) is added to each well. At the designed time, the uptake of [^3H]PGE2 is stopped by aspiration of uptake buffer; followed by immediate washing twice with 500 μL of chilled Waymouth buffer. Cells are then lysed with 100 μL lysis buffer containing 0.25% SDS and 0.05 N NaOH. 1.5 mL of scintillation solution is added to each well, and intracellular [^3H]PGE2 is counted via a Beta Counter.
For preliminary testing of the compounds, 20 μL of Waymouth buffer containing the compound is added to each well; this was immediately followed by the addition of 180 μL of Waymouth buffer containing [^3H]PGE2. In each well, the total volume of uptake medium is 200 μL. Test compounds are first dissolved in organic solvent, such as EtOH, and then diluted in Waymouth buffer. The percent inhibition of [^3H]PGE2 uptake by compounds is calculated as [(uptakevehicle−uptakeinhibitor)÷(uptakevehicle)]×100.
To determine IC50 of each compound, Waymouth buffer containing various concentrations of the compound is added to each well; immediately followed by the addition of 180 μL of Waymouth buffer containing [^3H]PGE2. IC50 was calculated by fitting the following equation. y=m1-m1*(m0/(m2+m0)).

| SMILES | IC50 |
| --- | --- |
| CCOC(=O)C(CC)(CCC(=O)O)c1cncc(Nc2ccc(C)cc2)n1 (racemic) [Cmp. 5, 4-ethoxycarbonyl-4-[6-(4-methylanilino)pyrazin-2-yl]hexanoic acid] | < 10000 nM |
| CCOC(=O)C(CC)(CCC(=O)O)c1csc(Nc2ccc(Cl)cc2Cl)n1 (racemic) [Cmp. 14a, 4-[2-(2,4-dichloroanilino)thiazol-4-yl]-4-ethoxycarbonyl-hexanoic acid] | < 1000 nM |
| CCOC(=O)C(CC)(CCC(=O)O)c1nc(Nc2ccc(Cl)cc2Cl)sc1Br (racemic) [Cmp. 14b, 4-[5-bromo-2-(2,4-dichloroanilino)thiazol-4-yl]-4-ethoxycarbonyl-hexanoic acid] | < 1000 nM |
| CCOC(=O)C(CC)(CCC(=O)O)c1nc(Nc2ccccc2Cl)sc1Cl (racemic) [Cmp. 27 (RS), 4-[5-chloro-2-(2-chloroanilino)thiazol-4-yl]-4-ethoxycarbonyl-hexanoic acid] | < 1000 nM |
| CCOC(=O)C(CC)(CCC(=O)O)c1nc(Nc2ccc(F)cc2F)sc1C (racemic) [compound 34, 4-(2-((2,4-difluorophenyl)amino)-5-methylthiazol-4-yl)-4-(ethoxycarbonyl)hexanoic acid] | < 10000 nM |
| CCC(CCC(=O)O)(C(=O)OCC(C)C)c1cncc(Nc2ccc(C)cc2)n1 (racemic) [compound 35, 4-(isobutoxycarbonyl)-4-(6-(p-tolylamino)pyrazin-2-yl)hexanoic acid] | < 10000 nM |
| CCC(CCC(=O)O)(C(=O)OC1(C)CC1)c1cncc(Nc2ccc(F)cc2F)n1 (racemic) [compound 39, 4-(6-((2,4-difluorophenyl)amino)pyrazin-2-yl)-4-((1-methylcyclopropoxy)carbonyl)hexanoic acid] | < 1000 nM |
| CCOC(=O)C(CC)(CCC(=O)O)c1nc(Nc2ccc(Cl)cc2Cl)sc1Cl (racemic) [compound 40, 4-(5-chloro-2-((2,4-dichlorophenyl)amino)thiazol-4-yl)-4-(ethoxycarbonyl)hexanoic acid] | < 1000 nM |
| CCOC(=O)C(CC)(CCC(=O)O)c1nc(Nc2ccccc2Cl)sc1Cl (single isomer, unassigned) [27 (enantiomer 1)] | < 1000 nM |
| CCC(CC)(CCC(=O)O)c1csc(Nc2ccc(C)cc2)n1 [Cmp. 2, 4-ethyl-4-[2-(4-methylanilino)thiazol-4-yl]hexanoic acid] | < 100000 nM |
| CCC(CC)(CCC(=O)O)c1nc(Nc2ccccc2O)sc1C [Cmp. 10, 4-ethyl-4-[2-(2-hydroxyanilino)-5-methyl-thiazol-4-yl]hexanoic acid] | < 1000 nM |
| CCC(CC)(CCC(=O)O)c1nc(Nc2ccc(F)cc2F)sc1C [Cmp. 21, 4-[2-(2,4-difluoroanilino)-5-methyl-thiazol-4-yl]-4-ethyl-hexanoic acid] | < 1000 nM |
| CCC(CC)(CCC(=O)O)c1nc(Nc2ccc(Cl)cc2Cl)sc1C [Cmp. 24, 4-[2-(2,4-dichloroanilino)-5-methyl-thiazol-4-yl]-4-ethyl-hexanoic acid] | < 1000 nM |
| CCC(CC)(CCC(=O)O)c1cncc(Nc2ccccc2Cl)n1 [Cmp. 28, 4-[6-(2-chloroanilino)pyrazin-2-yl]-4-ethyl-hexanoic acid] | < 1000 nM |
| CCC(CC)(CCC(=O)O)c1cncc(Nc2cc(F)c(F)cc2F)n1 [Cmp. 29, 4-ethyl-4-[6-(2,4,5-trifluoroanilino)pyrazin-2-yl]hexanoic acid] | < 1000 nM |
| CCC(CC)(CCC(=O)O)c1csc(-c2ccccc2)n1 [compound 30, 4-ethyl-4-(2-phenylthiazol-4-yl)hexanoic acid] | < 10000 nM |
| CCC(CC)(CCC(=O)O)c1coc(Nc2ccc(C)cc2)n1 [compound 32, 4-ethyl-4-(2-(p-tolylamino)oxazol-4-yl)hexanoic acid] | < 100000 nM |
| CCC(CC)(CCC(=O)O)c1nnc(Nc2ccc(C)cc2)o1 [compound 33, 4-ethyl-4-(5-(p-tolylamino)-1,3,4-oxadiazol-2-yl)hexanoic acid] | < 10000 nM |

Next, values leading:

| IC50 | SMILES |
| --- | --- |
| < 1000 nM | CCOC(=O)C(CC)(CCC(=O)O)c1csc(Nc2ccccc2O)n1 (racemic) [Cmp. 1, 4-ethoxycarbonyl-4-[2-(2-hydroxyanilino)thiazol-4-yl]hexanoic acid] |
| < 20000 nM | CCOC(=O)C(CC)(CCC(=O)O)c1csc(Nc2ccc(C)cc2)n1 (racemic) [Cmp. 3, 4-ethoxycarbonyl-4-[2-(4-methylanilino)thiazol-4-yl]hexanoic acid] |
| < 10000 nM | CCOC(=O)C(CC)(CCC(=O)O)c1csc(Nc2ccc(F)cc2F)n1 (racemic) [Cmp. 6, 4-[2-(2,4-difluoroanilino)thiazol-4-yl]-4-ethoxycarbonyl-hexanoic acid] |
| < 10000 nM | CCC(CC)(CCC(=O)O)c1csc(Nc2ccccc2OC)n1 (racemic) [Cmp. 7, 4-ethyl-4-[2-(2-methoxyanilino)thiazol-4-yl]hexanoic acid] |
| < 1000 nM | CCOC(=O)C(CC)(CCC(=O)O)c1cncc(Nc2ccc(F)cc2F)n1 (racemic) [Cmp. 11, 4-[6-(2,4-difluoroanilino)pyrazin-2-yl]-4-ethoxycarbonyl-hexanoic acid] |
| < 1000 nM | CCOC(=O)C(CC)(CCC(=O)O)c1cncc(Nc2ccccc2OC)n1 (racemic) [Cmp. 17, 4-ethoxycarbonyl-4-[6-(2-methoxyanilino)pyrazin-2-yl]hexanoic acid] |
| < 1000 nM | CCOC(=O)C(CC)(CCC(=O)O)c1cncc(Nc2cc(F)ccc2F)n1 (racemic) [Cmp. 20, 4-[6-(2,5-difluoroanilino)pyrazin-2-yl]-4-ethoxycarbonyl-hexanoic acid] |
| < 1000 nM | CCOC(=O)C(CC)(CCC(=O)O)c1nc(Nc2ccc(Cl)cc2Cl)sc1C (racemic) [Cmp. 23, 4-[2-(2,4-dichloroanilino)-5-methyl-thiazol-4-yl]-4-ethoxycarbonyl-hexanoic acid] |
| < 10000 nM | CCOC(=O)C(CCC(=O)O)(CC1CC1)c1cncc(Nc2ccc(C)cc2)n1 (racemic) [compound 36, 4-(cyclopropylmethyl)-5-ethoxy-5-oxo-4-(6-(p-tolylamino)pyrazin-2-yl)pentanoic acid] |
| < 1000 nM | CCOC(=O)C(CC)(CCC(=O)O)c1cncc(Nc2ccc(O)c(F)c2)n1 (racemic) [compound 37, 4-(ethoxycarbonyl)-4-(6-((3-fluoro-4-hydroxyphenyl)amino)pyrazin-2-yl)hexanoic acid] |
| < 10000 nM | CCC(CCC(=O)O)(COC)c1cncc(Nc2ccc(F)cc2F)n1 (racemic) [compound 38, 4-(6-((2,4-difluorophenyl)amino)pyrazin-2-yl)-4-(methoxymethyl)hexanoic acid] |
| < 10000 nM | CCC(CC)(CCC(=O)O)c1csc(Nc2ccccc2Cl)n1 [Cmp. 8, 4-[2-(2-chloroanilino)thiazol-4-yl]-4-ethyl-hexanoic acid] |
| < 10000 nM | CCC(CC)(CCC(=O)O)c1csc(Nc2cccc(OC)c2)n1 [Cmp. 9, 4-ethyl-4-[2-(3-methoxyanilino)thiazol-4-yl]hexanoic acid] |
| < 10000 nM | CCOC(=O)C(CC)(CCC(=O)O)c1ccnc(Nc2ccc(C)cc2)n1 (stereo not drawn) [Cmp. 13, 4-ethoxycarbonyl-4-[2-(4-methylanilino)pyrimidin-4-yl]hexanoic acid] |
| < 1000 nM | CCC(CC)(CCC(=O)O)c1cncc(Nc2ccc(F)cc2F)n1 [Cmp. 18, 4-[6-(2,4-difluoroanilino)pyrazin-2-yl]-4-ethyl-hexanoic acid] |
| < 1000 nM | CCc1ncc(Nc2ccc(F)cc2F)nc1C(CC)(CC)CCC(=O)O [Cmp. 19, 4-[6-(2,4-difluoroanilino)-3-ethyl-pyrazin-2-yl]-4-ethyl-hexanoic acid] |
| < 1000 nM | CCC(CC)(CCC(=O)O)c1nc(Nc2ccc(F)cc2F)sc1Br [Cmp. 22b, 4-[5-bromo-2-(2,4-difluoroanilino)thiazol-4-yl]-4-ethyl-hexanoic acid] |
| < 20000 nM | CCC(CC)(CCC(=O)O)c1csc(Nc2ccc(C(F)(F)F)cc2)n1 [compound 31, 4-ethyl-4-(2-((4-(trifluoromethyl)phenyl)amino)thiazol-4-yl)hexanoic acid] |
